Consider 1 sequence from article PMC11232398, “Antimalarial activity of cecropin antimicrobial peptides derived from Anopheles mosquitoes” (Antimicrobial Agents and Chemotherapy, 2024).

The test system of data set [1] is healthy erythrocytes (human RBCs).
Protocol: Hemolysis assays were performed using human RBCs according to previous reports ([38]). Briefly, serial dilutions of peptides were incubated with 2% hematocrit RBCs (in PBS) at 37°C for three different time points (15, 30, and 60 min) in triplicates. After incubation, the RBCs were centrifuged for 10 min at 1,000 × g and the absorbance of the supernatants at 540 nm was read by a spectrophotometer to assess the level of the released hemoglobin. Maximum hemolysis was determined by substituting the sample with 1% Triton X-100, which completely lyses the cells. […] Hemolysis of peptides was calculated using the following formula: Hemolysis (%) = (A540 of peptide- A540 of PBS) * 100/A540 of Triton X-100. Two independent tests with three technical replicates were performed for each hemolysis assay.
Data set [2] relates to RBCs infected by schizonts of P. falciparum 3D7. Description: Hemolytic activity on RBCs infected by schizonts. The data set is classed as cell-based, human. The following applies: percoll-purified 3D7 schizonts, 2% hematocrit in PBS. Here is the method:
To test the hemolytic activity of the peptides against RBCs infected by Plasmodium, schizonts of the P. falciparum 3D7 strain were collected. The parasite culture of mainly schizonts was centrifuged and resuspended to 50% hematocrit. Then, the resuspended culture was carefully laid on top of the gradient with 3 mL 70% and 3 mL 40% percoll-sorbitol solution. After centrifugation at 2,300 × g for 20 min at 20°C, schizonts from the 40/70% interface were collected and washed twice with 10× volume of ICM. The collected parasites were resuspended in PBS to 2% hematocrit for hemolysis assay as described above.

The subject of data set [3] is P. falciparum 803 (artemisinin-resistant strain). Briefly: In vitro antimalarial IC50 assay. Type of data set: cell-based, Plasmodium falciparum. The following applies: strain 803, 72 h incubation, Giemsa smears. Here is the method:
(§1) Blood stages of the laboratory clones P. falciparum 3D7 (sensitive strain), P. falciparum 803 (artemisinin-resistant strain), and P. falciparum Dd2 (chloroquine-resistant strain) were cultured in vitro according to the method of Trager and Jensens with minor modifications ([37]). Briefly, cultures were maintained in O-positive human erythrocytes (RBCs) as host cells at 2% hematocrit and maintained in complete medium (CM) [RPMI-1640 culture medium supplemented with NaHCO3 (2 mg/mL), hypoxanthine (50 µg/mL), HEPES (5.96 mg/mL), albumax II (1%), and gentamicin (40 µg/mL)]. The cultures were diluted to 1% parasitemia and 2% hematocrit in CM and incubated in a humidified atmosphere with 5% O2, 5% CO2, and 90% N2 at 37°C. Prior to experiments, the cultures were highly synchronized for ring stages using 5% sorbitol twice at a 40-h interval. Briefly, ring stage cultures were centrifuged and the pellet was washed once in incomplete medium (ICM, RPMI-1640 without addition). […] The development of the parasite was observed using light microscopy, and parasitemia was determined by counting at least 10,000 RBCs on Giemsa’s solution-stained thin blood smears.
(§2) Highly synchronous ring stage parasites were used to investigate the in vitro antimalarial activity of the peptides. […] Thin blood films stained with Giemsa’s solution were counted under a microscope. […] IC50 was calculated by GraphPad Prism.

Data set [4] has as its system P. falciparum Dd2 (chloroquine-resistant strain). Description: In vitro antimalarial IC50 assay. The data set is classed as cell-based, Plasmodium falciparum. The note with it: strain Dd2, 72 h incubation, Giemsa smears. The method, then: as §1, §2
Data set [5] relates to Staphylococcus aureus (ATCC 6538). Briefly: Antimicrobial assay, broth dilution. The data set is classed as cell-based. The following applies: S. aureus. The method, then: (§3) Gram-positive bacteria S. aureus, B. subtilis, and Gram-negative E. coli were used in antimicrobial assays. Bacteria were first grown in LB (Luria-Bertani) broth to an absorbance of 0.8 at 600 nm. The antibacterial behavior of the peptides was studied via the agar disc diffusion assay and broth microdilution method ([41], [42]). The agar plates were made by pouring 20 mL of LB broth containing 1.5% agar into 60-mm Petri dishes. Then, a 100-µL bacterial suspension (10^6 CFU/mL) was spread over the LB agar plate. Ten microliters of the 2-mg/mL peptide sample was carefully dropped onto sterile 2-mm diameter paper discs that had been previously attached to the plate. The plates were carefully placed in an incubator at 37°C for 24 hours. If an examined sample had antimicrobial activity, a clear zone was observed around the filter paper representing inhibition of bacterial growth. The MIC was determined by the broth dilution method, and the absorbance value was measured at an optical density at 600 nm (OD600) to determine the inhibition rate of peptides at different concentrations against each bacteria. Then, the MIC at which no visible growth occurred was recorded ([38]). The MIC50 was calculated by GraphPad Prism.
Background: Dilution methods test growth across graded concentrations, often in twofold steps.

The subject of the next data set is Bacillus subtilis (ATCC). Description: Antimicrobial assay, broth dilution. The following applies: B. subtilis. Type of data set: cell-based. The method, then:
as §3

Data set [6] deals with Escherichia coli (ATCC 25922). Briefly: Antimicrobial assay, broth dilution. Type of data set: cell-based. The note with it: E. coli. The method, then:
as §3

For data set [7], the system named is methyl-β-cyclodextrin-treated RBCs. Description: Hemolytic activity on cholesterol-depleted erythrocytes. The data set is classed as cell-based, human. The note with it: RBCs treated with 7.5 mM methyl-β-cyclodextrin for 2 hours at 37°C. From the text:
Cholesterol is the main component of the RBC membrane and is important for maintaining its stability ([39]). Plasmodium falciparum infection efficiently depletes the red blood cells of cholesterol, which renders […] membranes susceptible to lysis ([40]). Therefore, methyl-β-cyclodextrin treatment was used to simulate the RBC cholesterol depletion caused by infection with Plasmodium. RBCs were washed once and then resuspended with PBS at 0.5% hematocrit. After treatment with the indicated concentration (7.5 mM) of methyl-β-cyclodextrin (Sigma) in RPMI for 2 hours at 37°C, the treated RBCs were washed with PBS and hemolysis assays were performed as described above. Two independent tests with five technical replicates were performed for each hemolysis assay.

Where two headings read alike, the source gives them in different places.

By IC50 is commonly meant the midpoint of a concentration-inhibition curve. Low values mean inhibition by little substance, high ones a need for much substance. The term MIC denotes the lowest concentration found to suppress growth. In general, MIC50 refers to the lowest concentration that inhibits either 50% of growth or 50% of the strains tested, depending on the study. A low value points to higher susceptibility. With “APRWKFGKRLEKLGRNVFRAA KKALPVIAGYKAL-NH2 [An-cecB]”, the hemolysis rate result in data set [1] (10 µM) was “less than 2%”; in data set [1] (20 µM), “less than 2%”; in data set [1] (40 µM), “less than 5%”. In addition, the “hemolytic activity to infected erythrocytes” value in data set [2] is reported as “specifically lysed infected erythrocytes”. The figures for the IC50 in data set [3] and in data set [4] were 9.89 µM and 12.8 µM, respectively. Besides, the MIC is 30 µM in data set [5] (OD600), 3.75 µM with Bacillus subtilis (ATCC) (OD600) and 3.75 µM in data set [6] (OD600). The MIC50 in data set [5] (OD600, GraphPad Prism) is 7.314 µM; in the data set with Bacillus subtilis (ATCC) (OD600, GraphPad Prism) it was 0.85 µM; in data set [6] (OD600, GraphPad Prism), 0.63 µM. Also, the “hemolysis of cholesterol-depleted erythrocytes” value in data set [7] is “significantly higher than that of controls”.
